According to patent publication US10329289B2, “6,7-dihydro-5H-pyrrolo[3,4-B]pyridin-5-one allosteric modulators of the M4 muscarinic acetylcholine receptor” (Merck Sharp & Dohme Corp., priority 2015, dated 2019):

Target: T1, human M4 muscarinic acetylcholine receptor (Homo sapiens, UniProt P08173)
T1 construct: expressed in transfected cells; host or cells: CHO-K1
T1 sequence (P08173 1-479): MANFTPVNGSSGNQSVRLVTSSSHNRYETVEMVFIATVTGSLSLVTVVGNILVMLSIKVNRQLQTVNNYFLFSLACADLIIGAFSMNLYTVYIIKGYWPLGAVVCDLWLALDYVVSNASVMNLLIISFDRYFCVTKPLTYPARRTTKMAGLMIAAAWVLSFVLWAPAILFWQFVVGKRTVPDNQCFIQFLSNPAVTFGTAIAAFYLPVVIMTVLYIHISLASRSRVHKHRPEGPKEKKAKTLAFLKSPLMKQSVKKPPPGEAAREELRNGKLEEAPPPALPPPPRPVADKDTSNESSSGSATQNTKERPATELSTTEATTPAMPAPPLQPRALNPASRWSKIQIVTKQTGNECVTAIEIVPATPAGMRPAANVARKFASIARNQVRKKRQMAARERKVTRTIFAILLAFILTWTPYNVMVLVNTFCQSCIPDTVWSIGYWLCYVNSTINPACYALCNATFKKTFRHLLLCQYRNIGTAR
Assay: human FLIPR-based M4 PAM assay (Ca2+ mobilization, CHO-K1 cells with human M4 receptor and Gαqi5)
Type: cell-based
Conditions: acetylcholine at 20% of maximum response, read-out: M4 PAM IP
Method in brief: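 CHO-K1 cells stably expressing human M4 and chimeric Gαqi5 were dye-loaded ~1 h at 37 °C and read for Ca2+ fluorescence. Compound followed by acetylcholine at an EC20 (sometimes an EC70 third addition); inflection point from a 4-parameter logistic fit.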

First: CO[C@@H]1Cc2ccc(OC3CCN(c4nc5c(c(C)c4C)C(=O)NC5)CC3)cc2C1 [Example 335A, (R)-2-(4-((2-methoxy-2,3-dihydro-1H-inden-5-yl)oxy)piperidin-1-yl)-3,4-dimethyl-6,7-dihydro-5H-pyrrolo[3,4-b]pyridin-5-one]
Second: CO[C@H]1Cc2ccc(OC3CCN(c4nc5c(c(C)c4C)C(=O)N(CCO)C5)CC3)cc2C1 [Example 267D, (S)-6-(2-hydroxyethyl)-2-(4-((2-methoxy-2,3-dihydro-1H-inden-5-yl)oxy)piperidin-1-yl)-3,4-dimethyl-6,7-dihydro-5H-pyrrolo[3,4-b]pyridin-5-one]
The EC50 of the first is 2.8-fold higher: 245 nM for the first, 87 nM for the second.

Going from `Cc1cc2c(nc1N1CCC(OCC(O)C(F)(F)F)CC1)CNC2=O` (single isomer, unassigned) [Example 181A] to `Cc1cc2c(nc1N1CCC(Oc3cncc(CO)c3)CC1)CNC2=O` [Example 156, 2-(4-((5-(hydroxymethyl)pyridin-3-yl)oxy)piperidin-1-yl)-3-methyl-6,7-dihydro-5H-pyrrolo[3,4-b]pyridin-5-one], the EC50 rises from 55 nM to 1220 nM (22-fold).

Going from `CCOc1ccc(OC2CCN(c3nc4c(cc3C)C(=O)N(C)[C@H]4CO)CC2)cn1` [Example 285, (R)-2-(4-((6-ethoxypyridin-3-yl)oxy)piperidin-1-yl)-7-(hydroxymethyl)-3,6-dimethyl-6,7-dihydro-5H-pyrrolo[3,4-b]pyridin-5-one] to `COc1ccc(OC2CCN(c3nc4c(cc3C)C(=O)N(CCO)C4)CC2)cn1` [Example 238, 6-(2-hydroxyethyl)-2-(4-((6-methoxypyridin-3-yl)oxy)piperidin-1-yl)-3-methyl-6,7-dihydro-5H-pyrrolo[3,4-b]pyridin-5-one], the EC50 falls from 8620 nM to 49 nM (180-fold). The second is the more potent here.

First: Cc1cc2c(nc1N1CCC(Oc3ccc4ocnc4c3)CC1)CNC2=O [Example 80, 2-(4-(benzo[d]oxazol-5-yloxy)piperidin-1-yl)-3-methyl-6,7-dihydro-5H-pyrrolo[3,4-b]pyridin-5-one]
Second: Cc1nc2cc(OC3CCN(c4nc5c(cc4C)C(=O)NC5)CC3)ccc2[nH]1 [Example 149, 3-methyl-2-(4-((2-methyl-1H-benzo[d]imidazol-5-yl)oxy)piperidin-1-yl)-6,7-dihydro-5H-pyrrolo[3,4-b]pyridin-5-one]
The EC50 of the first is 14-fold lower: 69 nM for the first, 1000 nM for the second. The first is the more potent here.

`CCc1cc2c(nc1N1CC[C@@H](Oc3ccc4c(cnn4C)c3)[C@@H](F)C1)CNC2=O` [Example 5A, 3-ethyl-2-((3S,4R)-3-fluoro-4-((1-methyl-1H-indazol-5-yl)oxy)piperidin-1-yl)-6,7-dihydro-5H-pyrrolo[3,4-b]pyridin-5-one] and `Cc1cc2c(nc1N1CC[C@H](Oc3ccc4c(cnn4C)c3)[C@@H](F)C1)CNC2=O` [Example 24, 2-((3S,4S)-3-fluoro-4-((1-methyl-1H-indazol-5-yl)oxy)piperidin-1-yl)-3-methyl-6,7-dihydro-5H-pyrrolo[3,4-b]pyridin-5-one] are within 1.5-fold of each other in EC50: 121 nM for the first, 167 nM for the second.

Going from `CCc1cc2c(nc1N1CC[C@@H](Oc3cccnc3)[C@@H](F)C1)CNC2=O` (single isomer, unassigned) [Example 215] to `Cc1cc2c(nc1N1CC[C@@H](Oc3ccc4[nH]ncc4c3)[C@@H](F)C1)CNC2=O` [Example 8, 2-((3S,4R)-4-((1H-indazol-5-yl)oxy)-3-fluoropiperidin-1-yl)-3-methyl-6,7-dihydro-5H-pyrrolo[3,4-b]pyridin-5-one], the EC50 falls from 304 nM to 14 nM (22-fold). The second is the more potent here.

Compared with `Cc1cc2c(nc1N1CCC(Oc3ccc4c(c3)COCC4)CC1)CNC2=O` [Example 112, 2-(4-(isochroman-7-yloxy)piperidin-1-yl)-3-methyl-6,7-dihydro-5H-pyrrolo[3,4-b]pyridin-5-one], `Cc1cc2c(nc1N1CCC(Oc3cnc4c(c3)COC4)CC1)CNC2=O` [Example 48, 2-(4-((5,7-dihydrofuro[3,4-b]pyridin-3-yl)oxy)piperidin-1-yl)-3-methyl-6,7-dihydro-5H-pyrrolo[3,4-b]pyridin-5-one] is 3-fold higher in EC50: 20 nM for the first, 61 nM for the second.

Compared with `Cc1cc2c(nc1N1CCC(Oc3cccc(C#N)c3)CC1)C(C)N(C)C2=O` (stereo not drawn) [Example 13, 3-((1-(3,6,7-trimethyl-5-oxo-6,7-dihydro-5H-pyrrolo[3,4-b]pyridin-2-yl)piperidin-4-yl)oxy)benzonitrile], `CCN1Cc2nc(N3CCC(Oc4cccc(C#N)c4)CC3)c(C)cc2C1=O` [Example 242, 3-((1-(6-ethyl-3-methyl-5-oxo-6,7-dihydro-5H-pyrrolo[3,4-b]pyridin-2-yl)piperidin-4-yl)oxy)benzonitrile] is 2.4-fold lower in EC50: 174 nM for the first, 74 nM for the second. The second is the more potent here.

`Cc1c(N2CCC(OC[C@]3(C)CC3(F)F)CC2)nc2c(c1C)C(=O)N(CCO)C2` [Example 265C, (S)-2-(4-((2,2-difluoro-1-methylcyclopropyl)methoxy)piperidin-1-yl)-6-(2-hydroxyethyl)-3,4-dimethyl-6,7-dihydro-5H-pyrrolo[3,4-b]pyridin-5-one] and `Cc1c(N2CCC(Oc3ccc4c(c3)CCOC4)CC2)nc2c(c1C)C(=O)N(CCO)C2` [Example 265F, 6-(2-hydroxyethyl)-2-(4-(isochroman-6-yloxy)piperidin-1-yl)-3,4-dimethyl-6,7-dihydro-5H-pyrrolo[3,4-b]pyridin-5-one] are within 1.5-fold of each other in EC50: 41 nM for the first, 46 nM for the second.

Going from `COCc1ccc(OC2CCN(c3nc4c(cc3C)C(=O)NC4)CC2)cc1` [Example 195, 2-(4-(4-(methoxymethyl)phen-oxy)piperidin-1-yl)-3-methyl-6,7-dihydro-5H-pyrrolo[3,4-b]pyridin-5-one] to `Cc1cc2c(nc1N1CCC(Oc3cnn(-c4ccccc4)c3)CC1)CNC2=O` [Example 170A, 3-methyl-2-(4-((1-phenyl-1H-pyrazol-4-yl)oxy)piperidin-1-yl)-6,7-dihydro-5H-pyrrolo[3,4-b]pyridin-5-one], the EC50 rises from 68 nM to 129 nM (1.9-fold).

First: Cc1cc2c(nc1N1CCC(Oc3cnc4c(c3)CC[C@@H]4O)CC1)CNC2=O (single isomer, unassigned) [Example 324C]
Second: Cc1cc2c(nc1N1CCC(Oc3ccc4c(c3)CN(C(=O)OC(C)(C)C)CC4)CC1)CNC2=O [Example 137, tert-butyl 7-((1-(3-methyl-5-oxo-6,7-dihydro-5H-pyrrolo[3,4-b]pyridin-2-yl)piperidin-4-yl)oxy)-3,4-dihydroisoquinoline-2(1H)-carboxylate]
The EC50 of the first is 2.2-fold higher: 1140 nM for the first, 515 nM for the second.

`Cc1c(N2CCC(Oc3ccc4c(c3)COC4)CC2)nc2c(c1C)C(=O)N(CC(N)=O)C2` [Example 310A, 2-(2-(4-((1,3-dihydro-2-benzofuran-5-yl)oxy)piperidin-1-yl)-3,4-dimethyl-5-oxo-5,7-dihydro-6H-pyrrolo[3,4-b]pyridin-6-yl)acetamide] and `Cc1cc2c(nc1N1CCC(Oc3ccc4c(c3)COC4)CC1)CN(C)C2=O` [Example 38, 2-(4-((1,3-dihydro-2-benzofuran-5-yl)oxy)piperidin-1-yl)-3,6-dimethyl-6,7-dihydro-5H-pyrrolo[3,4-b]pyridin-5-one] are within 1.5-fold of each other in EC50: 35 nM for the first, 30 nM for the second.

Going from `CCc1cc2c(nc1N1CCC(OCC3(C)CC3)CC1)CNC2=O` [Example 229, 3-ethyl-2-(4-((1-methylcyclopropyl)methoxy)piperidin-1-yl)-6,7-dihydro-5H-pyrrolo[3,4-b]pyridin-5-one] to `Cc1cc2c(nc1N1CCC(Oc3ccc4c(cnn4C)c3)CC1)CN(CCO)C2=O` [Example 239A, 6-(2-hydroxyethyl)-3-methyl-2-(4-((1-methyl-1H-indazol-5-yl)oxy)piperidin-1-yl)-6,7-dihydro-5H-pyrrolo[3,4-b]pyridin-5-one], the EC50 rises from 36 nM to 86 nM (2.4-fold).

Work on `Cc1c(N2CCC(Oc3ccc(F)cc3)CC2)nc2c(c1C)C(=O)N(C)[C@H]2CO` [Example 354, (R)-2-(4-(4-fluorophenoxy)piperidin-1-yl)-7-(hydroxymethyl)-3,4,6-trimethyl-6,7-dihydro-5H-pyrrolo[3,4-b]pyridin-5-one] yielded an EC50 of 1470 nM.
